Measured values as given in ChEMBL document CHEMBL1201862, “PubChem BioAssay data set” (2004).
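A five-concentration, 48-hour dose response in 96-well plates underlies each endpoint, interpolated linearly between surrounding concentrations. Abbreviation: GI50, concentration required for 50% inhibition of growth.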 Active and inactive are the calls of the source. Rule as the data show it: active = GI50 up to about 1.1 µM and inactive = higher.

Legend:
Assay in all cases: DTP human tumour cell line panel, 48 h
NCI-H460 = tested on: NCI-H460
SK-OV-3 = tested on: SK-OV-3
DLD-1 = tested on: DLD-1
OVCAR-4 = tested on: OVCAR-4
HOP-62 = tested on: HOP-62
ACHN = tested on: ACHN
SR = tested on: SR
HCT-15 = tested on: HCT-15
SK-MEL-28 = tested on: SK-MEL-28
UACC-257 = tested on: UACC-257
NCI-H23 = tested on: NCI-H23
SNB-78 = tested on: SNB-78
HCT-116 = tested on: HCT-116
SK-MEL-2 = tested on: SK-MEL-2
OVCAR-3 = tested on: OVCAR-3

O=C(Cc1ccccc1)NN1C(=O)C(Cl)C1c1ccccc1Cl (centres undefined)
GI50 (NCI-H460): 76 µM (inactive) | GI50 (SK-OV-3): > 100 µM (inactive) | GI50 (DLD-1): > 69.2 µM (inactive) | GI50 (OVCAR-4): > 100 µM (inactive) | GI50 (HOP-62): > 100 µM (inactive) | GI50 (ACHN): > 100 µM (inactive) | GI50 (SR): 23.2 µM (inactive) | GI50 (HCT-15): > 92.9 µM | GI50 (SK-MEL-28): > 100 µM (inactive) | GI50 (UACC-257): > 70.6 µM (inactive) | GI50 (NCI-H23): 64.1 µM (inactive) | GI50 (SNB-78): 83.6 µM (inactive) | GI50 (HCT-116): 59.4 µM (inactive) | GI50 (SK-MEL-2): > 100 µM (inactive) | GI50 (OVCAR-3): > 62.7 µM (inactive)

COc1cccc(NC(=O)C(=O)C(C(C)=O)c2nc3ccc(Cl)cc3nc2O)c1 (centres undefined)
GI50 (NCI-H460): > 100 µM (inactive) | GI50 (SK-OV-3): > 100 µM (inactive) | GI50 (DLD-1): > 100 µM (inactive) | GI50 (OVCAR-4): > 100 µM (inactive) | GI50 (HOP-62): > 100 µM (inactive) | GI50 (ACHN): > 100 µM (inactive) | GI50 (HCT-15): > 100 µM | GI50 (SK-MEL-28): > 100 µM (inactive) | GI50 (UACC-257): > 100 µM (inactive) | GI50 (NCI-H23): > 100 µM (inactive) | GI50 (SNB-78): > 100 µM (inactive) | GI50 (HCT-116): > 100 µM (inactive) | GI50 (SK-MEL-2): > 100 µM (inactive) | GI50 (OVCAR-3): > 100 µM (inactive)

O=C(CC(CC(=O)Oc1c(Br)cc(Br)cc1C(=O)O)C(=O)Oc1c(Br)cc(Br)cc1C(=O)O)Oc1c(Br)cc(Br)cc1C(=O)O
GI50 (NCI-H460): 56.8 µM (inactive) | GI50 (SK-OV-3): 54.7 µM (inactive) | GI50 (DLD-1): 65 µM (inactive) | GI50 (OVCAR-4): 50.2 µM (inactive) | GI50 (HOP-62): 46.5 µM (inactive) | GI50 (ACHN): > 100 µM (inactive) | GI50 (HCT-15): 43.8 µM | GI50 (SK-MEL-28): > 100 µM (inactive) | GI50 (UACC-257): 83.6 µM (inactive) | GI50 (NCI-H23): 36.4 µM (inactive) | GI50 (SNB-78): 49.2 µM (inactive) | GI50 (HCT-116): 43.6 µM (inactive) | GI50 (SK-MEL-2): 39.2 µM (inactive) | GI50 (OVCAR-3): 47.8 µM (inactive)

CC(=O)c1cccc(N2COC(C)(C)c3nc4ccccc4n3C2)c1
GI50 (NCI-H460): > 100 µM (inactive) | GI50 (SK-OV-3): > 100 µM (inactive) | GI50 (DLD-1): > 100 µM (inactive) | GI50 (OVCAR-4): 14.3 µM (inactive) | GI50 (HOP-62): > 100 µM (inactive) | GI50 (ACHN): > 100 µM (inactive) | GI50 (SR): > 100 µM (inactive) | GI50 (HCT-15): > 100 µM | GI50 (SK-MEL-28): > 100 µM (inactive) | GI50 (UACC-257): > 100 µM (inactive) | GI50 (NCI-H23): > 100 µM (inactive) | GI50 (SNB-78): > 100 µM (inactive) | GI50 (HCT-116): > 100 µM (inactive) | GI50 (SK-MEL-2): > 100 µM (inactive) | GI50 (OVCAR-3): > 100 µM (inactive)

N#CC(C#N)C(c1ccccc1)c1ccccc1
GI50 (NCI-H460): > 100 µM (inactive) | GI50 (SK-OV-3): > 100 µM (inactive) | GI50 (DLD-1): > 100 µM (inactive) | GI50 (OVCAR-4): > 100 µM (inactive) | GI50 (HOP-62): > 100 µM (inactive) | GI50 (ACHN): > 100 µM (inactive) | GI50 (SR): > 100 µM (inactive) | GI50 (HCT-15): > 100 µM | GI50 (SK-MEL-28): > 100 µM (inactive) | GI50 (UACC-257): > 100 µM (inactive) | GI50 (SNB-78): > 100 µM (inactive) | GI50 (HCT-116): > 100 µM (inactive) | GI50 (SK-MEL-2): > 100 µM (inactive) | GI50 (OVCAR-3): > 100 µM (inactive)

CN(C)CC/C(=N\Nc1ccc(Cl)cc1)c1ccccc1
GI50 (NCI-H460): 1.1 µM (active) | GI50 (SK-OV-3): 2.22 µM (inactive) | GI50 (DLD-1): 0.409 µM (active) | GI50 (OVCAR-4): 1.77 µM (inactive) | GI50 (HOP-62): 1.68 µM (inactive) | GI50 (ACHN): 0.478 µM (active) | GI50 (SR): 0.415 µM (active) | GI50 (HCT-15): 0.327 µM | GI50 (SK-MEL-28): 1.52 µM (inactive) | GI50 (UACC-257): 1.64 µM (inactive) | GI50 (NCI-H23): 1.95 µM (inactive) | GI50 (SNB-78): 1.38 µM (inactive) | GI50 (HCT-116): 1.18 µM (inactive) | GI50 (SK-MEL-2): 1.86 µM (inactive) | GI50 (OVCAR-3): 1.51 µM (inactive)

CCCc1c(C(=O)OCC)[nH]c(C(=O)CCC(=O)c2[nH]c(C(=O)OCC)c(CCC)c2C(=O)OCC)c1C(=O)OCC
GI50 (NCI-H460): > 100 µM (inactive) | GI50 (SK-OV-3): > 100 µM (inactive) | GI50 (DLD-1): > 100 µM (inactive) | GI50 (OVCAR-4): 48.3 µM (inactive) | GI50 (ACHN): > 100 µM (inactive) | GI50 (SR): > 100 µM (inactive) | GI50 (HCT-15): > 100 µM | GI50 (SK-MEL-28): > 100 µM (inactive) | GI50 (UACC-257): > 100 µM (inactive) | GI50 (NCI-H23): > 100 µM (inactive) | GI50 (SNB-78): > 100 µM (inactive) | GI50 (HCT-116): > 100 µM (inactive) | GI50 (SK-MEL-2): 68.9 µM (inactive) | GI50 (OVCAR-3): 68.5 µM (inactive)

CCOC(=O)C1=NC(c2ccccc2)(c2ccccc2)OC1=C(Cl)Cl
GI50 (NCI-H460): 70.6 µM (inactive) | GI50 (SK-OV-3): > 100 µM (inactive) | GI50 (DLD-1): 80.7 µM (inactive) | GI50 (OVCAR-4): 63 µM (inactive) | GI50 (HOP-62): > 100 µM (inactive) | GI50 (ACHN): 50.4 µM (inactive) | GI50 (SR): 19.8 µM (inactive) | GI50 (HCT-15): 70.1 µM | GI50 (SK-MEL-28): > 100 µM (inactive) | GI50 (UACC-257): 32.4 µM (inactive) | GI50 (NCI-H23): > 100 µM (inactive) | GI50 (SNB-78): 96.4 µM (inactive) | GI50 (HCT-116): 29.2 µM (inactive) | GI50 (OVCAR-3): 42.2 µM (inactive)

O=C1CCC(=O)c2sccc2N1
GI50 (NCI-H460): > 100 µM (inactive) | GI50 (SK-OV-3): > 100 µM (inactive) | GI50 (DLD-1): > 100 µM (inactive) | GI50 (OVCAR-4): > 100 µM (inactive) | GI50 (HOP-62): > 100 µM (inactive) | GI50 (ACHN): > 100 µM (inactive) | GI50 (HCT-15): > 100 µM | GI50 (SK-MEL-28): > 100 µM (inactive) | GI50 (UACC-257): > 100 µM (inactive) | GI50 (NCI-H23): > 100 µM (inactive) | GI50 (SNB-78): > 100 µM (inactive) | GI50 (HCT-116): > 100 µM (inactive) | GI50 (SK-MEL-2): > 100 µM (inactive) | GI50 (OVCAR-3): > 100 µM (inactive)
